ChEMBL document CHEMBL3621112, “Computationally motivated synthesis and enzyme kinetic evaluation of N-(-d-glucopyranosyl)-1,2,4-triazolecarboxamides as glycogen phosphorylase inhibitors” (Medchemcomm, 2015)

Legend:
[1] = target: T1, Glycogen phosphorylase, muscle form (Oryctolagus cuniculus, UniProt P00489); assay: Inhibition of glycogen phosphorylase b in rabbit skeletal muscle using glycogen substrate and glucose-1-phosphate by Lineweaver-Burk plot method
T1 sequence (P00489 whole entry): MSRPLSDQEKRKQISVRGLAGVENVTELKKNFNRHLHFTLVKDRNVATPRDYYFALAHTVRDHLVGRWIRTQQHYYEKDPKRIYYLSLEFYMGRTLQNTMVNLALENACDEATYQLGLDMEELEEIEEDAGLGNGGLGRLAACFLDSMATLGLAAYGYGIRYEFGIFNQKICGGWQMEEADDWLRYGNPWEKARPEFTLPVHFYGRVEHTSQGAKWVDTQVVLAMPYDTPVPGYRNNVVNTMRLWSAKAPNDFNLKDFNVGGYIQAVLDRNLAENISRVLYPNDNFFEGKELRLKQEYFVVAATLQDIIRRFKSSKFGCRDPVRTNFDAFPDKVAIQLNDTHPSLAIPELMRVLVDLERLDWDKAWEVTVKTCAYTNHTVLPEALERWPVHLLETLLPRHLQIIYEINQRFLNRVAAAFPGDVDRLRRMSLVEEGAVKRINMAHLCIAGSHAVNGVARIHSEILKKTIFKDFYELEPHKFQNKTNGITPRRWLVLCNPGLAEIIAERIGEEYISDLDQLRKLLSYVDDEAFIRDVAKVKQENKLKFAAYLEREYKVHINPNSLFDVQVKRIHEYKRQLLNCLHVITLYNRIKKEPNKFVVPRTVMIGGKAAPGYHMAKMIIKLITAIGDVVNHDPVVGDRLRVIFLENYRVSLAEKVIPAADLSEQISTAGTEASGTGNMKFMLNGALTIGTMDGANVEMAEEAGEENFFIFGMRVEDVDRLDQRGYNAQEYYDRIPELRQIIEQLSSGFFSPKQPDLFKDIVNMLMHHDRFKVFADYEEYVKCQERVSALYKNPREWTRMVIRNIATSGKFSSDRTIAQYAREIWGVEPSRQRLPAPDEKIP

[2] = Inhibition of glycogen phosphorylase (unknown origin); set-up: species or system Homo sapiens

Row | Compound | Ki [1] | Ki ([1]; read-out: Ki) [µM] | Ki [2] [µM]
1 | O=C(N[C@@H]1O[C@H](CO)[C@@H](O)[C@H](O)[C@H]1O)c1noc(-c2ccc3ccccc3c2)n1 | Not Active | – | –
2 | O=C(N[C@@H]1O[C@H](CO)[C@@H](O)[C@H](O)[C@H]1O)c1nc(-c2ccc3ccccc3c2)no1 | Not Active | – | –
3 | O=C(N[C@@H]1O[C@H](CO)[C@@H](O)[C@H](O)[C@H]1O)c1nnc(-c2ccccc2)[nH]1 | – | 1 | –
4 | O=C(N[C@@H]1O[C@H](CO)[C@@H](O)[C@H](O)[C@H]1O)c1nnc(-c2ccc3ccccc3c2)[nH]1 | – | 9.2 | –
6 | O=C(NC(=O)c1ccc2ccccc2c1)N[C@@H]1O[C@H](CO)[C@@H](O)[C@H](O)[C@H]1O | – | – | 0.35
